The test system of assay [1] is M. haemolytica serotype-1 strain SH789. Put plainly: Calf challenge model: endobronchial inoculation of M. haemolytica with or without peptide. It counts as in vivo, Mannheimia haemolytica. The conditions noted are these: for Gross pneumonic lesions as % of total lung volume, Lesion (%), individual calf: 2 mg peptide with 5×10^9 CFU M. haemolytica endobronchially, necropsy 90 hours post-inoculation; for Number of M. haemolytica isolated from the lungs at necropsy, individual calf / Number of M. haemolytica isolated from the lungs at necropsy, Mean / Gross pneumonic lesions as % of total lung volume, Mean (%): 2 mg peptide with 5×10^9 CFU endobronchially; for Duration of nasal discharge post-inoculation: study period 90 hours; for Number of M. haemolytica isolated from the lungs at necropsy, Mean: group mean; for Number of M. haemolytica isolated from the lungs at necropsy, Mean / Gross pneumonic lesions as % of total lung volume, Mean (%): 4 calves; for Gross pneumonic lesions as % of total lung volume, Mean (%): group mean±SEM, 90 hours. The method, then:
M. Haemolytica serotype-1 strain SH789, isolated from the pneumonic lung of a calf, was streaked on blood agar plate and incubated overnight at 37° C. The following day few colonies were transferred to 3 ml of pre-warmed brain heart infusion (BHI) broth and incubated for 3 hours at 37° C. with constant shaking (200 cycles/minute). Two BHI agar plates were ‘lawned’ with this bacterial culture using sterile cotton swabs and incubated overnight at 37° C. The following day (day of inoculation) M. haemolytica was harvested from the BHI agar plates and transferred to 40 ml of pre-warmed BHI broth in a 250 ml flask, and incubated for 2.5 hours at 37° C. with constant shaking to obtain cultures in the logarithmic phase of growth. The culture was centrifuged at 6000×g at 20° C. for 30 minutes and the pellet was washed once with RPMI 1640 (without phenol red) medium. The bacterial pellet was re-suspended in 4 ml of RPMI 1640 (without phenol red), and 1 ml of this culture was added to 50 ml of pre-warmed RPMI 1640 (without phenol red) containing L-glutamine (1 ml L-glutamine/100 ml RPMI) in a 250 ml flask. Bacteria were incubated for 3 hours at 37° C. with constant shaking to obtain logarithmic phase culture and the optical density (OD) was measured. The culture was appropriately diluted to obtain a concentration of 1×10^9 CFU of M. haemolytica per ml. Five ml of this preparation per calf was used for endobronchial challenge. The bacterial concentration was confirmed the following day by culturing diluted aliquots of the inoculum on BHI agar and counting the resulting colonies.
The peptide (P17) containing amino acids 5-17 of bovine CD18 (NH2-RPQLLLLAGLLAL-OH) (SEQ ID NO.:71), and the peptide (PSC) containing the same amino acids as peptide P17 but in a randomly scrambled sequence (NH2-LRALLPLQLLAGL-OH) (SEQ ID NO.:72), were synthesized at Neopeptide (Cambridge, Mass.). Both peptides were re-suspended in dimethysulfoxide (ATCC) at a concentration of 20 mg/ml and stored at −20° C. until used. Based on the results of in vitro neutralization of Lkt by peptide P17, each calf was endobronchially inoculated with 2 mg of peptide in 5 ml of RPMI mixed with 5×10^9 CFU of M. haemolytica in 5 ml of RPMI.
All experimental protocols were approved by the Institutional Animal Care and Use Committee (IACUC) at Washington State University before the onset of the study. Twelve Holstein calves were randomly assigned to three experimental groups. Calves were matched for age when assigned into three groups. Prior to inoculation, serum samples and pharyngeal and nasal swabs were collected from all the calves. Group I calves received endobronchial injections of 5×10^9 CFU of M. haemolytica in 10 ml of RPMI. Group II calves received 5×10^9 CFU of M. haemolytica and 2 mg of peptide PSC in 10 ml of RPMI. Group III calves received 5×10^9 CFU of M. haemolytica and 2 mg of peptide P17 in 10 ml of RPMI. The inoculum was flushed down with an additional 10 ml of RPMI in all calves. Clinical disease in each calf was scored at different time points post-inoculation.
Physical examination of each calf was performed immediately prior to experimental infection and at 6, 18, 24, 42, 48, 66, 72, and 90 hours post-inoculation. Signs of clinical disease were allocated points according to the scoring system followed by Malazdrewich et al (2003; Table 3).
On necropsy lungs were removed and gross pneumonic lesion development in each lobe of lung was observed. The entire lung from each animal was sliced at 1 cm thickness and the total and pneumonic lesion areas were traced onto transparent acetate sheets. The traced portions were scanned into ImgaeJ, NIH Image (National Institute of Health; Nethesda, Md.), which was used to measure areas representing both the total serial section and the gross pneumonic lesions within it. […]

Assay [2] has as its target T1, M. haemolytica leukotoxin (Lkt) (Mannheimia haemolytica, UniProt P16535).
Assay [3] has as its target T1, M. haemolytica leukotoxin (Lkt). Put plainly: cell-based.

Values joined by “and” are separate entries in the source; they are usually repeats but may differ in a detail not shown here. Equal values may be shown once. “Also recorded” adds a separate entry of the source. Peptide text beside a SMILES is read from it.

Regarding “NH2-RPQLLLLAGLLAL-OH (H-RPQLLLLAGLLAL-OH; listed as Bos taurus) [P17]”, the “M. haemolytica in lungs, fold less than in Group I (bacteria only) and Group II (PSC)” value in assay [1] (calves, necropsy 90 hours, P<0.001) was 100- to 1000 fold and 100 to 1000 fold. In addition, the “Gross pneumonic lesions (percent lung volume) compared between groups” value in assay [1] (calves, necropsy 90 hours, P=0.9) was “not statistically significant; also recorded: no less than those in calves inoculated with the control peptide PSC”. For the same compound, in assay [1] (calves), the “Gross pneumonic lesions as % of total lung volume, Lesion (%), individual calf” value was 15.67% and 2.7% and 13.22% and 8.51%; the “Duration of nasal discharge post-inoculation” value was “up to 24 hours”. In assay [1] (calves, necropsy 90 hours), the “Number of M. haemolytica isolated from the lungs at necropsy, individual calf” value was 5.29 × 10^3 CFU per gram of lung tissue and 4.92 × 10^2 CFU per gram of lung tissue and 5.70 × 10^4 CFU per gram of lung tissue and 8.00 × 10^2 CFU per gram of lung tissue. In addition, the “Mean clinical score compared with other groups at 24 hours post-inoculation” value in assay [1] (calves, 24 hours post-inoculation, P<0.05) is listed as “statistically significantly lower”. For the same compound, in assay [1] (calves, scored 6 to 90 hours post-inoculation), the “Total clinical disease scores compared with Group I and II” value was “lower than those for group I and II at all time points except 48 hours”. For the same compound, the “Number of M. haemolytica isolated from the lungs at necropsy, Mean” value in assay [1] (necropsy 90 hours) is recorded as 1.589 ± 1.374 × 10^4 CFU per gram of lung tissue. Moreover, the “Gross pneumonic lesions as % of total lung volume, Mean (%)” value in assay [1] is recorded as 10.53 ± 3.02%. Moreover, in assay [2], the “Leukotoxic activity of supernatant fluids from M. haemolytica cultures incubated with peptide” value is given as “did not exhibit significant leukotoxic activity”. For the same compound, in assay [3], the “Inhibition of Lkt-induced cytolysis of bovine PMNs” value is recorded as “strongly inhibited” and the “Inhibition of Lkt-induced cytolysis of ruminant leukocytes” value was “effectively inhibited”.
`CC(C)C[C@H](NC(=O)CNC(=O)[C@H](C)NC(=O)[C@H](CC(C)C)NC(=O)[C@H](CC(C)C)NC(=O)[C@H](CC(C)C)NC(=O)[C@H](CC(C)C)NC(=O)[C@H](CCC(N)=O)NC(=O)[C@@H]1CCCN1C(=O)[C@@H](N)CCCNC(=N)N)C(=O)N[C@@H](CC(C)C)C(=O)N[C@@H](C)C(=O)N[C@@H](CC(C)C)C(=O)N[C@@H](CCC(N)=O)C(=O)N[C@@H](CO)C(=O)N[C@H](C(=O)N[C@@H](CC(C)C)C(=O)N[C@@H](CO)C(=O)N[C@@H](CCC(N)=O)C(=O)N[C@@H](CCC(=O)O)C(=O)O)C(C)C` [P5] (H-RPQLLLLAGLLALQSVLSQE-OH): the IC50 (in general, the concentration needed to halve the response being measured) in assay [3] was 5.55 µM.
With “NH2-LRALLPLQLLAGL-OH (H-LRALLPLQLLAGL-OH) [PSC, reference compound]”, in assay [1] (calves), the “Gross pneumonic lesions as % of total lung volume, Lesion (%), individual calf” value was 4.07% and 10.70% and 9.01% and 24.57%; the “Duration of nasal discharge post-inoculation” value was “throughout the study period”. Also, the “Number of M. haemolytica isolated from the lungs at necropsy, individual calf” value in assay [1] (calves, necropsy 90 hours) is 1.89 × 10^7 CFU per gram of lung tissue and 6.73 × 10^5 CFU per gram of lung tissue and 6.50 × 10^7 CFU per gram of lung tissue and 1.87 × 10^7 CFU per gram of lung tissue. Also, the “Number of M. haemolytica isolated from the lungs at necropsy, Mean” value in assay [1] (necropsy 90 hours) was 2.58 ± 1.374 × 10^7 CFU per gram of lung tissue. The “Gross pneumonic lesions as % of total lung volume, Mean (%)” value in assay [1] turned out to be 12.09 ± 4.39%. Also, the “Leukotoxic activity of supernatant fluids from M. haemolytica cultures incubated with peptide” value in assay [2] is “had significant leukotoxic activity”.
Consider `CSCC[C@H](N)C(=O)N[C@@H](CC(C)C)C(=O)N[C@@H](CCCNC(=N)N)C(=O)N[C@@H](CCC(N)=O)C(=O)N[C@@H](CCCNC(=N)N)C(=O)N1CCC[C@H]1C(=O)N[C@@H](CCC(N)=O)C(=O)N[C@@H](CC(C)C)C(=O)N[C@@H](CC(C)C)C(=O)N[C@@H](CC(C)C)C(=O)N[C@@H](CC(C)C)C(=O)N[C@@H](C)C(=O)NCC(=O)N[C@@H](CC(C)C)C(=O)N[C@@H](CC(C)C)C(=O)N[C@@H](C)C(=O)N[C@@H](CC(C)C)C(=O)N[C@@H](CCC(N)=O)C(=O)N[C@@H](CO)C(=O)N[C@H](C(=O)O)C(C)C` [P1] (H-MLRQRPQLLLLAGLLALQSV-OH), for which the IC50 in assay [3] is 11.6 µM.
